Laboratory results: ChEMBL document CHEMBL1201862, “PubChem BioAssay data set” (2004)
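Cells were grown in 96-well plates and exposed to each compound for 48 hours at five concentrations; endpoints were interpolated linearly between bracketing concentrations, or set to the highest concentration if not reached. The concentration for 50% growth inhibition is given as GI50.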 Calls of active or inactive are those of the source. Rule as the data show it: active = GI50 up to about 1.1 µM and inactive = higher.

What was measured:
Experiment in all cases: NCI tumour cell line growth inhibition, 48 h
[1] = tested on: ACHN
[2] = tested on: RXF 393
[3] = tested on: HCC 2998
[4] = tested on: SF-268
[5] = tested on: A549
[6] = tested on: SNB-19
[7] = tested on: NCI-H460
[8] = tested on: HT-29
[9] = tested on: A498
[10] = tested on: Hs-578T
[11] = tested on: HL-60
[12] = tested on: UACC-257
[13] = tested on: OVCAR-4
[14] = tested on: PC-3
[15] = tested on: SK-MEL-28
[16] = tested on: SK-OV-3
[17] = tested on: HOP-92
[18] = tested on: HOP-62

Compound	GI50 [1]	GI50 [2]	GI50 [3]	GI50 [4]	GI50 [5]	GI50 [6]	GI50 [7]	GI50 [8]	GI50 [9]	GI50 [10]	GI50 [11]	GI50 [12]	GI50 [13]	GI50 [14]	GI50 [15]	GI50 [16]	GI50 [17]	GI50 [18]
COC12CCCN1c1ccn(Cc3ccccc3)c(=O)c1C2=O (configuration not stated)	> 100 µM (inactive)	> 100 µM (inactive)	> 100 µM (inactive)	> 100 µM (inactive)	> 100 µM (inactive)	> 100 µM (inactive)	> 100 µM (inactive)	> 100 µM (inactive)	> 100 µM (inactive)	> 100 µM (inactive)	66.1 µM (inactive)	> 100 µM (inactive)	> 100 µM (inactive)	> 100 µM (inactive)	> 100 µM (inactive)	> 100 µM (inactive)	> 100 µM (inactive)	–
Cc1oc2nc1C(=O)NCc1nc(cs1)C(=O)N[C@H](C(C)C)c1nc(cs1)C(=O)N[C@H]2C	> 100 µM (inactive)	8.34 µM (inactive)	43.7 µM (inactive)	85.5 µM (inactive)	47.2 µM (inactive)	> 100 µM (inactive)	66.7 µM (inactive)	65 µM (inactive)	> 100 µM (inactive)	75.3 µM (inactive)	–	> 100 µM (inactive)	> 100 µM (inactive)	40.3 µM (inactive)	> 100 µM (inactive)	> 100 µM (inactive)	61.1 µM (inactive)	85.1 µM (inactive)
CN(C)CCc1c2c(nc3ccccc13)C(=O)c1cccnc1C2=O	0.084 µM (active)	0.172 µM (active)	1.35 µM (inactive)	0.238 µM (active)	1.24 µM (inactive)	0.652 µM (active)	0.0826 µM (active)	1.55 µM (inactive)	0.597 µM (active)	1.15 µM (inactive)	0.0486 µM (active)	0.214 µM (active)	0.31 µM (active)	0.313 µM (active)	0.492 µM (active)	0.479 µM (active)	1.49 µM (inactive)	–
O=C(Cc1cc(=O)oc2cc(O)ccc12)N/N=C/c1ccc(N(CCCl)CCCl)cc1	15.8 µM (inactive)	16.6 µM (inactive)	> 100 µM (inactive)	13.4 µM (inactive)	16.1 µM (inactive)	21.1 µM (inactive)	13.8 µM (inactive)	22.2 µM (inactive)	22.3 µM (inactive)	26.1 µM (inactive)	14.5 µM (inactive)	22.1 µM (inactive)	23.8 µM (inactive)	17.9 µM (inactive)	15.1 µM (inactive)	–	20.8 µM (inactive)	23.7 µM (inactive)
Cc1sc2nc(-c3ccc(Cl)c([N+](=O)[O-])c3)c(/C=N/NC(=N)N)n2c1C	1.46 µM (inactive)	1.52 µM (inactive)	1.1 µM (active)	1.85 µM (inactive)	1.62 µM (inactive)	1.48 µM (inactive)	1.63 µM (inactive)	1.35 µM (inactive)	1.66 µM (inactive)	1.79 µM (inactive)	1.71 µM (inactive)	1.29 µM (inactive)	–	1.52 µM (inactive)	0.973 µM (active)	1.75 µM (inactive)	1.4 µM (inactive)	0.471 µM (active)
CC1C(c2ccccc2O)c2cc3c(cc2OC1N1CCOCC1)OCO3 (configuration not stated)	29.4 µM (inactive)	22.6 µM (inactive)	25 µM (inactive)	43 µM (inactive)	25.6 µM (inactive)	40.7 µM (inactive)	20.6 µM (inactive)	26.9 µM (inactive)	19.2 µM (inactive)	19.4 µM (inactive)	20 µM (inactive)	19.6 µM (inactive)	–	27.1 µM (inactive)	40.6 µM (inactive)	40.1 µM (inactive)	27 µM (inactive)	18.5 µM (inactive)
